In the NIST ThermoML archive (doi:10.1021/je060228n):

What was measured:
[1] = xn = mol fraction of the nth substance listed; settings: 101 kPa, Liquid
[2] = refractive index (Na D-line) (dimensionless); xn = mol fraction of the nth substance listed; settings: 298.15 K, 101 kPa, Liquid
[3] = for mass density / speed of sound / viscosity: Liquid; for surface tension liquid-gas: Drop weight
[4] = refractive index (Na D-line) (dimensionless); settings: 101.33 kPa, Liquid

CCO [ethanol] + CCOS(=O)(=O)[O-].CCn1cc[n+](C)c1
[1], x1 = 1
Settings	mass density [kg/m3]	speed of sound [m/s]	viscosity [mPa·s]
298.15 K	785.46	1146.3	1.082
313.15 K	772	1092.8	0.827
328.15 K	758.6	1043.2	0.641

Settings	refractive index
[2], x1 = 1	1.36023

CCOS(=O)(=O)[O-].CCn1cc[n+](C)c1 [1-ethyl-3-methylimidazolium ethyl sulfate] + CCO
[1]
Settings	mass density, 298.15 K [kg/m3]	mass density, 313.15 K [kg/m3]	mass density, 328.15 K [kg/m3]	speed of sound, 298.15 K [m/s]	speed of sound, 313.15 K [m/s]	speed of sound, 328.15 K [m/s]	viscosity, 298.15 K [mPa·s]	viscosity, 313.15 K [mPa·s]	viscosity, 328.15 K [mPa·s]
x2 = 0	1237.63	1227.51	1217.47	1679	1641.6	1604.5	97.58	50.01	29.18
x2 = 0.0623	1228.9	1218.87	1208.77	1669.8	1633.6	1594.8	79.12	42.18	25.36
x2 = 0.23	1201.26	1191.17	1181.01	1626.6	1590.1	1551	44.93	26.19	16.84
x2 = 0.4113	1161.68	1151.32	1140.94	1564	1527.7	1488.2	22.96	14.72	10.14
x2 = 0.5393	1123.63	1113	1102.3	1506.5	1459.1	1431.1	13.58	8.577	6.204
x2 = 0.6788	1066.7	1055.7	1044.7	1428.8	1381	1350.7	7.224	5.208	3.934
x2 = 0.7662	1017.9	1006.6	995.2	1367.2	1318.9	1286.7	4.598	3.413	2.642
x2 = 0.8303	973	961.3	949.6	1315.6	1266.2	1232.2	3.178	2.398	1.874
x2 = 0.9554	848.6	836.2	823.5	1195.9	1143.3	1102.6	1.573	1.2	0.941
x2 = 0.964	837.4	824.7	812	1186.2	1132.7	1091.4	1.427	1.095	0.862
x2 = 0.9863	806.1	793.4	780.3	1160.7	1106.2	1063.1	1.271	0.971	0.759

[2]
Settings	refractive index
x2 = 0	1.4794
x2 = 0.0623	1.47717
x2 = 0.23	1.47031
x2 = 0.4113	1.46017
x2 = 0.5393	1.45018
x2 = 0.6788	1.43532
x2 = 0.7662	1.42247
x2 = 0.8303	1.41052
x2 = 0.9554	1.37687
x2 = 0.964	1.37373
x2 = 0.9863	1.36514

CCOS(=O)(=O)[O-].CCn1cc[n+](C)c1 [1-ethyl-3-methylimidazolium ethyl sulfate] + O
[1]
Settings	mass density, 298.15 K [kg/m3]	mass density, 313.15 K [kg/m3]	mass density, 328.15 K [kg/m3]	speed of sound, 298.15 K [m/s]	speed of sound, 313.15 K [m/s]	speed of sound, 328.15 K [m/s]	viscosity, 298.15 K [mPa·s]	viscosity, 313.15 K [mPa·s]	viscosity, 328.15 K [mPa·s]
x2 = 0	1237.63	1227.51	1217.47	1679.1	1641.6	1604.5	97.58	50.01	29.18
x2 = 0.0715	1236.14	1225.97	1215.87	1687	1640.1	1617.1	82.01	43.36	25.8
x2 = 0.2089	1232.72	1222.53	1212.4	1696.7	1660.8	1622.1	57.84	32.09	19.82
x2 = 0.3227	1229	1218.87	1208.82	1707.2	1671	1631.7	42.89	24.76	15.8
x2 = 0.5041	1220	1209.82	1199.54	1729	1692.6	1652.9	24.74	15.11	10.02
x2 = 0.5975	1212.9	1202.43	1192.02	1741.6	1703.9	1665.9	17.52	10.98	7.45
x2 = 0.7441	1192.2	1181.55	1170.8	1773	1734.5	1695.3	10.58	6.715	4.622
x2 = 0.854	1159.2	1146.19	1135.3	1792.6	1749.2	1704.3	5.848	3.818	2.596
x2 = 0.9506	1084.4	1076.1	1066.9	1709.2	1693.1	1668.1	2.316	1.608	1.189

[2]
Settings	refractive index
x2 = 0	1.4794
x2 = 0.0715	1.47827
x2 = 0.2089	1.476
x2 = 0.3227	1.47344
x2 = 0.5041	1.46726
x2 = 0.5975	1.46243
x2 = 0.7441	1.44916
x2 = 0.854	1.42825
x2 = 0.9506	1.38383

CCO [ethanol]
[3], 101 kPa
Settings	mass density [kg/m3]	speed of sound [m/s]	viscosity [mPa·s]
298.15 K	785.46	1146.3	1.082
313.15 K	772	1092.8	0.827
328.15 K	758.6	1043.2	0.641

Settings	refractive index
[4], 298.15 K	1.36023

CCOS(=O)(=O)[O-].CCn1cc[n+](C)c1 [1-ethyl-3-methylimidazolium ethyl sulfate]
Settings	refractive index, [4]	surface tension liquid-gas, [3] [mN/m]
288.15 K	1.48197	47.91
293.15 K	1.48072	47.39
298.15 K	1.4794	46.96
303.15 K	1.47803	46.58
308.15 K	1.47669	46.23
313.15 K	1.47535	45.84
318.15 K	1.47397	–
323.15 K	1.47259	–
328.15 K	1.47124	–
333.15 K	1.46989	–
338.15 K	1.46851	–
343.15 K	1.46718	–

[3], 101.33 kPa
Settings	mass density [kg/m3]	speed of sound [m/s]	viscosity [mPa·s]
288.15 K	1244.46	1703.9	–
293.15 K	1241	1691.4	–
298.15 K	1237.63	1679	97.58
303.15 K	1234.25	1666.6	76.67
308.15 K	1230.88	1654	61.71
313.15 K	1227.51	1641.6	50.01
318.15 K	1224.15	1629.2	41.37
323.15 K	1220.8	1616.8	34.46
328.15 K	1217.47	1604.5	29.18
333.15 K	1214.31	1591.3	24.96
338.15 K	1210.82	1578.9	21.45
343.15 K	1207.51	1566.4	18.72

O [water] + CCOS(=O)(=O)[O-].CCn1cc[n+](C)c1
[1], x1 = 1
Settings	mass density [kg/m3]	speed of sound [m/s]	viscosity [mPa·s]
298.15 K	–	–	0.89
313.15 K	–	–	0.653
328.15 K	985.7	1545.4	0.504

Settings	refractive index
[2], x1 = 1	1.33251
